Like-named read-outs stand apart in the source and are kept apart here.
Key:
[1] = Online brain microdialysis UHPLC-HRMS/MS pharmacokinetics of Nic and its main metabolites in rat NAc after single Nic injection; type: in vivo; design: AUC0–360 min: unit not given here; conditions: for Cmax / MRT / Tmax / half-life: rat, brain microdialysate (NAc), ip; for half-life: read-out: t 1/2z
Protocol: (§1) To inhibit the main Nic metabolic enzyme CYP2B in the brain, rats received intraperitoneal injections of proadifen (50 mg kg^−1·day^−1, 4 d) ([Song et al., 2012]). Control animals were pretreated with saline using the same protocol. All the rats were sacrificed by cardiac perfusion after microdialysis sampling. The brain tissues were separated and divided into four parts (cerebrum, cerebellum, diencephalon, and brainstem). The CYP2B activity in different rat brain regions was determined following the instructions of the GENMED CYP2B1 activity fluorescence quantitative detection kit (GENMED SCIENTIFICS INC. U.S.A, GMS18019.1).
(§2) The mass spectrometer was operated in positive ionization mode. […] The normalized collision energy was set at 10%.

[2] = test system: release of neurotransmitters in the NAc; experiment: Microdialysis release of neurotransmitters in rat NAc after Nic exposure under regulation of Nic metabolism; type: in vivo; conditions: for peak concentration of DOPAC / peak concentration of HVA: after Nic stimulation (2 mg kg^-1 ip)
Protocol: as §1, §2

[3] = test system: monoamine neurotransmitters in rat striatum; conditions: rat striatum dialysate; after 3 h of Nic exposure (2 mg kg^-1 ip)
Description: Anesthesia was induced with 3% isoflurane in an induction chamber before surgical procedures and was placed in a stereotaxic frame equipped with a rat ear and bite bar. Rat was maintained under anesthesia with 1%–2% isoflurane during operation procedures. And the cranium above the ventral striatum (coordinates relative to bregma: anterior/posterior (AP), +1.2 mm; medial/lateral (ML), −2.4 mm; dorsal/ventral (DV), −6.0 mm) or NAc (coordinates relative to bregma: anterior/posterior (AP), +1.7 mm; medial/lateral (ML), −1.5 mm; dorsal/ventral (DV), −6.5 mm) was exposed to implant the probe guide-cannula (CMA/12), two screws were implanted into the skull to serve as an anchor and dental cement was used as an adhesive to fixed the probe guide-cannula. To avoid the interference of neurotransmitter changes due to physical stimulation of pain receptors during intraperitoneal injection of Nic, Nic was injected with the aid of an administration catheter (Instech, BTPU-040, 6.35 × 10.16 mm, America), which was implanted in the abdomen, the other end of the catheter was passed under the skin and sent to the back and sealed with a plug (Instech, PNP3M-F22R, America). The rats were housed individually and allowed to recover from surgery for at least 24 h.
For in vivo microdialysis sampling, the probe (CMA/12 Elite, membrane parameters: polyarylethersulfone material; 2 mm length; φ 0.5 mm; 20 kDa cut-off) was inserted into the brain through the cannula. After implantation, the probe was perfused with Ringer’s solution by the syringe pump (CMA/402, piston propulsion speed: 2.4 μm·min^-1–1.2 mm min^-1; velocity range: 0.1 μL·min^-1–20 μL min^-1; precision: −1.5%-1.5%) at fixed flow rates (1.5 μL min^-1), and the dialysates were analyzed under the optimized UHPLC-HRMS/MS condition directly. Intraperitoneal administration of 2 mg kg^-1 Nic was performed until stable levels of neurotransmitters were obtained, which was defined as the mean value of neurotransmitter concentrations in six consecutive samples varied by no more than 10%.
UHPLC-HRMS/MS system was performed on Dionex Ultimate 3000 UHPLC equipped with a Q-Exactive mass spectrometer and electrospray ionization (ESI) interface (Thermo Fisher Scientific, Germany). Chromatographic separation was achieved by the pentafluorophenyl phase column (Discovery® HS F5-3 column, 2.1 × 150 mm, 3 μm) with linear binary gradient elution, at a flow rate of 0.5 mL min^-1. Eluent A was 10 mM ammonium acetate with FA (0.1%, v/v) dissolved in water, and eluent B was acetonitrile with 0.1% FA (v/v). […] From 3 to 6 min, a linear gradient was applied from 45% to 75% B and then return linearly to the initial condition at 9 min and the column was allowed to equilibrate for 1 min.
The mass spectrometer was operated in positive ionization mode. The optimized mass spectrometer parameters were as follows: a resolution of 35000; automatic gain control (AGC) target was 2.0 e^5; maximum injection time (IT) was 100 m; 3.5 kV for spray voltage; ion transfer tube temperature, 350°C; S-Lens RF level, 60%. The isolation window of the precursor ions was done using a quadrupole with an isolation window of m/z 1. The normalized collision energy was set at 10%. Analytes were determined by a parallel reaction monitoring (PRM) method by acquiring two transitions for each compound. The most specific transition was selected for the quantitative purpose. All data were gathered and analyzed using Xcalibur 2.2 software (Thermo Fisher Scientific, Germany). […]

CYP2B1 = molecular target: T1, CYP2B1 (Rattus norvegicus, UniProt P00176); experiment: CYP2B1 activity in rat brain tissue after proadifen pretreatment (GENMED CYP2B1 activity fluorescence quantitative detection kit); type: in vivo; conditions: 4 days
T1 construct: The brain tissues were separated and divided into four parts (cerebrum, cerebellum, diencephalon, and brainstem); from tissue; host or cells: brain tissue (cerebrum, cerebellum, diencephalon, brainstem) of male Sprague Dawley rats
T1 sequence (P00176 1-491): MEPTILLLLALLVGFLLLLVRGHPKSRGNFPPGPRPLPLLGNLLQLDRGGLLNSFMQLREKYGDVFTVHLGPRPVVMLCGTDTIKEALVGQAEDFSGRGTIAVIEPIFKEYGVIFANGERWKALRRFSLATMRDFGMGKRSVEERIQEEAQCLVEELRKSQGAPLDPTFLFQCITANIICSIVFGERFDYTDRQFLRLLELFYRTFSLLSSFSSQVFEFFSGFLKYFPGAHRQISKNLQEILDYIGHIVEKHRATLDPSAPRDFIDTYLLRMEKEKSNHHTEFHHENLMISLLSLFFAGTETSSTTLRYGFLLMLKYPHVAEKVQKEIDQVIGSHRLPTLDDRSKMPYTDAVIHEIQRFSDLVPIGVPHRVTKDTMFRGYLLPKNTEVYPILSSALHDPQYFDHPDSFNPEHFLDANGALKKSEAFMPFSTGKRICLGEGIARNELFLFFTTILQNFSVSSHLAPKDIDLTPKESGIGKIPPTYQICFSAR
Protocol: as §1

[4] = rat NAc, Nic 2 mg kg^-1 ip, Prodifine (proadifen) pretreated
[5] = rat NAc, Nic 2 mg kg^-1 ip, saline-pretreated
[6] = 2 mg/kg, rat NAc, Nic 2 mg kg^-1 ip, Prodifine (proadifen) pretreated
[7] = 2 mg/kg, rat NAc, Nic 2 mg kg^-1 ip, saline-pretreated
[8] = after Nic exposure, proadifen pretreatment group
[9] = Nic 2 mg kg^-1 ip, proadifen vs saline pretreatment

In the case of `CN1C(=O)CC[C@H]1c1cccnc1` [Cot, (−) cotinine], the CL/F [1, 4] was 7.0 mL/min, the CL/F [1, 5] was 9.0 mL/min and the Cmax [1, 6] was 20.3 ng/mL. The MRT [1, 6] was 3.12 h, the Tmax [1, 6] was 2 h and the half-life [1, 6] was 2.19 h. For the same compound, the Cmax [1, 7] was 16.7 ng/mL, the MRT [1, 7] was 3.11 h and the Tmax [1, 7] was 2.67 h. The half-life [1, 7] was 1.74 h.

In the case of `C[N@+]1([O-])CCC[C@H]1c1cccnc1` [NNO, (1′S, 2′S)-nicotine-1′-oxide], the “AUC0–360 min” value ([1]; rat NAc dialysate, Nic 2 mg kg^-1 ip single injection, Prodifine (proadifen 50 mg kg^-1 d^-1 ip, 4 days) pretreated, two-compartmental model) was 0.6, the CL/F [1, 4] was 3.2 mL/min and the CL/F [1, 5] was 5.0 mL/min. The “decrease of C max (level) of Nic metabolite after CYP2B1 inhibition compared with control rats” value ([1]; rat brain, Nic 2 mg kg^-1 ip, proadifen-pretreated vs saline control) was 65.6%, the Cmax [1, 6] was 5.2 ng/mL and the MRT [1, 6] was 1.57 h. It also gave a Tmax [1, 6] of 0.667 h, a half-life [1, 6] of 0.895 h and a Cmax [1, 7] of 15.1 ng/mL. For the same compound, the MRT [1, 7] was 2.39 h, the Tmax [1, 7] was 0.5 h and the half-life [1, 7] was 0.802 h.

With `CN1CCC[C@H]1c1cccnc1` [Nic, (−) nicotine] the “time by which Nic was almost completely cleared from the rat brain” value ([1]; Nic 2 mg kg^-1 ip) was ≤ 360 min, the CL/F [1, 4] was 14.0 mL/min and the CL/F [1, 5] was 25.0 mL/min. The “brain C max of Nic in proadifen group relative to saline group” value ([1]; rat brain, Nic 2 mg kg^-1 ip, proadifen-pretreated vs saline) was 1.26 times, the Cmax ([1]; 2 mg kg^-1, rat NAc, Nic 2 mg kg^-1 ip, Prodifine (proadifen) pretreated) was 1220 ng/mL and the Cmax [1, 6] was 1220 ng/mL. The MRT [1, 6] was 1.89 h, the Tmax [1, 6] was 0.5 h and the half-life [1, 6] was 1.28 h. For the same compound, the Cmax [1, 7] was 968 ng/mL, the MRT [1, 7] was 1.43 h and the Tmax [1, 7] was 0.5 h. The half-life [1, 7] was 2.15 h, the “C max of 5-HIAA” value [2, 8] was ~240 % of baseline and the “C max of 5-HT” value [2, 8] was ~390 % of baseline. For the same compound, the “peak level of Ach relative to baseline” value ([2]; after Nic injection) was “almost doubled”, the “peak concentration of DOPAC” value ([2]; proadifen pretreated group) was ~340 % of the baseline and the “peak concentration of HVA” value ([2]; proadifen pretreated group) was ~330 % of the baseline. For the same compound, the “peak concentration of DOPAC” value ([2]; saline group) was ~290 % of the baseline, the “peak concentration of HVA” value ([2]; saline group) was ~270 % of the baseline and the “average level of 5-HIAA” value [3] was 234.4 µg/L. For the same compound, the “average level of 5-HT” value [3] was 45.9 µg/L, the “average level of DA” value [3] was 25.1 µg/L and the “average level of DOPAC” value [3] was 99.2 µg/L. For the same compound, the “average level of HVA” value [3] was 169.8 µg/L.

For `CCCC(C(=O)OCCN(CC)CC)(c1ccccc1)c1ccccc1` [proadifen], the “decrease of whole brain CYP2B1 activity on average” value (CYP2B1; proadifen 50 mg kg^-1 d^-1 ip, vs saline-pretreated rats) was 36.9%, the “effect on brain CYP2B1 activity” value (CYP2B1; proadifen 50 mg·kg^−1·d^−1 ip) was “significant inhibition” and the “effect of proadifen inhibition on Nic-induced peak level of Ach” value ([2]; Nic 2 mg kg^-1 ip) was “did not further increased it”. For the same compound, the “average level of GABA in proadifen group relative to saline group” value [2, 9] was 2.7 times and the “average level of serotonin under inhibition of nicotine metabolism relative to control” value [2, 9] was 1.2 times.

Source: publication PMC10626537, “Pharmacokinetic and pharmacodynamic studies of nicotine in rat brain: a simultaneous investigation of nicotine metabolites and the release of neurotransmitters in vivo” (Frontiers in Chemistry, 2023)
